Measured values reported in US8951982B2, “Methods and compositions for the treatment of eye disorders with increased intraocular pressure” (Sylentis S.A.U., priority 2004, dated 2015).
d = 2'-deoxy (DNA)

What was measured:
[1] = test system: PTGS1; test: siRNA transfection of cells, real time PCR of target gene expression; format: cell-based; conditions: 100 nM siRNA, mean ± SD
Protocol: (§1) Cells (either NPE, OMDC, or HEK293 cells) were incubated with various siRNA molecules and assayed for expression of the native mRNA corresponding to the siRNA molecule. One day prior to transfection, 2−4×10^5 cells were seeded into each well of a 6 well plate in 3 ml of growth medium (DMEM, 10% serum, antibiotics and glutamine) and incubated under normal growth conditions (37° C. and 5% CO2). Lipofectamine 2000 Reagent (Invitrogen Corporation, Carlsbad, Calif.) was used to transfect the cells with the siRNA molecules. The protocol supplied by the manufacturer was followed. Briefly, siRNA molecules were added to cells that were 30%-50% confluent to a final concentration of 100 nM. Prior to addition to the cells, the siRNA molecule was diluted in 250 μl DMEM and incubated at room temperature for 5 minutes. The siRNA was then mixed with 6 μl of Lipofectamine 2000 Reagent that also had been diluted in 250 μl DMEM and the mixture was incubated at room temperature for 20 minutes. The siRNA/Lipofectamine mixture was added to the cells drop-wise with 2 ml of fresh growth medium low in antibiotics. After swirling the plates to ensure uniform distribution of the transfection complexes, the cells were incubated under normal growth conditions for 24 hours. After incubation with either of the transfection complexes, the medium was removed and replaced with 3 ml of fresh complete growth medium. mRNA was collected from cells at 24, 48 and 72 hours post-transfection.
(§2) After transfection and incubation with a siRNA molecule, total RNA fractions were extracted from cells using protocols well known in the art. The effect of siRNAs on target gene expression was analyzed by real time PCR and semi-quantitative PCR according to standard protocols. Approximately 250 ng of total RNA was used for reverse transcription followed by PCR amplification with specific primers for the target gene in a reaction mixture containing SYBR Green I Dye (Applied Biosystems, Foster City, Calif.). Basic PCR conditions comprised an initial step of […], followed by 40 cycles of 5 s at 95° C., 10 s at 62° C. and 15 s at 72° C. Quantification of beta-actin mRNA was used as a control for data normalization.
(§3) The values represent the mean of the percentage of siRNA interference of each gene expression once normalized with the control cells and their standard deviations.

[2] = test system: CA2; test: as above; format: cell-based; conditions: 100 nM siRNA, mean ± SD, normalized to beta-actin
Protocol: as §1, §2, §3

[3] = test system: Normotensive New Zealand White rabbits; test: In vivo rabbit model of IOP (contact tonometer); conditions: figure legends (FIGS. 5-8), 256 μg dose of siRNA per administration
Protocol: Normotensive New Zealand White rabbits (males, 2-3 kg) were used in the in vivo assays. The animals were kept in individual cages with free access to food and water. Animals were submitted to artificial 12 hours light/darkness cycles to avoid uncontrolled circadian oscillations of IOP and all experiments were performed at the same time of day to control for any fluctuations in IOP due to circadian oscillations. Animal handling and treatment were carried out in accordance with the European Communities Council Directive (86/609/EEC) and the statement of the Association for Research in Vision and Ophthalmology on the Use of Animals in Ophthalmic and Vision Research. Each animal was used for only one experiment.
IOP measurements were done using a contact tonometer (TonoPen XL, Mentor, Norwell, Mass.) due to past success of measuring intraocular pressures within the range of 3 to 30 mm Hg in rabbits (Abrams et al., 1996, Invest Ophthalmol Vis Sci. 37:940-4). Measurements were performed by delicately applying the tonometer's sensor to the corneal surface of the animal. All measurements fell within the 3 to 30 mm Hg interval with the mean baseline value of intraocular pressure being 17.0±0.39 mm Hg for untreated animals (n=100). In order to avoid distress to the animal, rabbits were topically anesthetized (10 μl of oxibuprocaine/tetracaine, 0.4%/1%, in a saline solution (1/4 v:v)) prior to IOP measurement.
Commercially available drugs were typically administered to the animals by instilling a small volume (typically 40 μl) on the corneal surface. Contralateral eyes were treated with the vehicle alone and were used as controls in each experiment.
siRNA molecules or commercially available drugs were typically administered to the animals as follows. Doses of siRNA in saline solution (0.9% w/v) to a final volume of 40 μl were applied to the corneal surface of one eye each day during four consecutive days. The opposite eye was taken as a control and 40 μl of sterile saline (0.9% w/v) was instilled on it at the same time points. Commercially available drugs were typically administered to the animals by instilling a small volume (typically 40 μl) on the corneal surface. Contralateral eyes were treated with the vehicle alone and were used as controls in each experiment. The IOP was measured before each application and at 2 h, 4 h and 6 h following the instillation for 10 days.
The data are summarized in Table 2 where values represent the mean of the normalized maximum percentage of IOP reduction after siRNA treatment and their standard deviations. The decrease in IOP was statistically significant for all the treated targets.

## SEQ ID NO: 353: siRNA targeting PTGS1 (prostaglandin endoperoxide synthase 1) (CCAUCUCUACCACUGGCAC; 3' dTdT, sugars by position and backbone not given here; listed as Homo sapiens)
[1]; 24 h post-transfection
  % of gene transcript level in control cells: 42.25 ± 13.76%
[1]; 48 h post-transfection
  % of gene transcript level in control cells: 42.68 ± 17.00%

## SEQ ID NO: 54: siRNA targeting CA2 (CUUCCCUGAGGAUCCUCAA; 3' dTdT, sugars by position and backbone not given here; listed as Homo sapiens)
[2]; 24 h post-transfection
  % of gene transcript level in control cells: 37.97 ± 9.78%
[2]; 48 h post-transfection
  % of gene transcript level in control cells: 61.45 ± 9.62%

## SEQ ID NO: 369: siRNA targeting PTGS1 (CAUUGUCAAGACGGCCACA; 3' dTdT, sugars by position and backbone not given here; listed as Homo sapiens)
[1]; 24 h post-transfection
  % of gene transcript level in control cells: 34.98 ± 14.33%
[1]; 48 h post-transfection
  % of gene transcript level in control cells: 26.30 ± 10.91%

## SEQ ID NO: 73: siRNA targeting human carbonic anhydrase II (CA2), 2 thymidine 3' overhang (GGUUGGCAGCGCUAAACCG; 3' dTdT, sugars by position and backbone not given here; listed as Homo sapiens)
[3]
  decrease of IOP over a saline control: 25%
[2]; 24 h post-transfection
  % of gene transcript level in control cells: 76.25 ± 12.60%
[2]; 48 h post-transfection
  % of gene transcript level in control cells: 84.57 ± 14.70%

## SEQ ID NO: 66: siRNA targeting CA2 (CUUCACUUGGUUCACUGGA; 3' dTdT, sugars by position and backbone not given here; listed as Homo sapiens)
[2]; 24 h post-transfection
  % of gene transcript level in control cells: 35.30 ± 9.73%
[2]; 48 h post-transfection
  % of gene transcript level in control cells: 51.14 ± 16.49%
